Measurements reported in patent publication US20100143265A1, “SYSTEM AND METHOD FOR THE DELIVERY OF A SANITIZING FOAM” (GREEN SOURCE AUTOMATED, LLC, priority 2008, published 2010).

Experiment: Gas solubility in water / dip solution
Format: physicochemical
Details: standard room temperature and 100 psi pressure
Experimental: Carbon dioxide (CO2) is soluble in water up to 1.45 g/L at 25° C. and 100 kPa. The amount of CO2 that can be dissolved into the dip solution is dependent on the temperature and pressure of the solution. The lower the temperature of the solution the less pressure that is required to saturate the solution with CO2. Conversely, the higher the temperature of the dip solution the more pressure that is required to saturate the solution with CO2.
The system (FIG. 3) was used with nitrous oxide as the propellant/diffusion gas. In an embodiment of the invention, nitrous oxide (N2O) can be used as a propellant/diffusion. N2O is partially soluble in water, but is almost completely soluble in fats and oils (the skin conditioner provided in the cow dip). Under standard room temperature and 100 psi pressure, approximately four volumes of N2O can be dissolved in one volume of the dip solution. The resulting nitrous oxide foam expands to approximately 6 mm in diameter, where the individual bubbles in the foam vary in size from approximately 1 micron to approximately 10 microns. After coalescing, the remaining liquid dries on the teat. It is noted that the amount of N2O that can be dissolved in one volume of dip solution will increase if more conditioners (containing one or more of fats, oils, fatty acids and triglycerides) are used since N2O is almost completely soluble in fats and oils. […]

Structure (SMILES)	volumes dissolved (gas and dip solution)
[N-]=[N+]=O [Example N2O, nitrous oxide]	approximately four
O=C=O [CO2, Carbon dioxide]	approximately 4.5 volumes
